Laboratory results: article PMC10762035, “Molecular basis of human trace amine-associated receptor 1 activation” (Nature Communications, 2024)
Where “and” joins values, the source holds several entries; their conditions need not be identical. Equal entries are not always repeated.

Tests used:
hTA1 [1] = molecular target: T1, hTA1 (Homo sapiens, UniProt Q96RJ0); assay: GloSensor cAMP accumulation assay, concentration response, wild-type hTA1 in transfected HEK293T cells; format: cell-based; settings: log[Compound], replicate wells;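 also: luminescence read after 30 min compound exposure at room temperature in cells preloaded with D-Luciferin, reflecting Gs-driven cAMP rise, efficacy scaled to the maximal β-PEA response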
T1 construct: expressed in transfected cells; host or cells: HEK293T
T1 sequence (Q96RJ0 1-339): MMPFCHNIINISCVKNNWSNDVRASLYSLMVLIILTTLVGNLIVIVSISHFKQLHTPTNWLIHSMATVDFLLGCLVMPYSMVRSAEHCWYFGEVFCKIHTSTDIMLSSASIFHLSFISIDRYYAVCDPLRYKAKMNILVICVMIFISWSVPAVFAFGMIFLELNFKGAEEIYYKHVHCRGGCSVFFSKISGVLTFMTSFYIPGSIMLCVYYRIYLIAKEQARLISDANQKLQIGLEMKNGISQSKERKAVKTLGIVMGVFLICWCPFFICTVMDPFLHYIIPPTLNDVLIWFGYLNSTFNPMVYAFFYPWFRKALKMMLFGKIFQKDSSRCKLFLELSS

hTA1 [2] = molecular target: T1, hTA1; assay: Screen of 89 aminergic compounds at 10 µM, cAMP accumulation in HEK293T cells; format: cell-based; settings: 10 µM of compound; HEK293T; threshold log2-fold change of 2;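 also: HEK293T cells co-transfected with hTA1 and GloSensor cAMP reporter, cAMP accumulation detected by luminescence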

Compound | Normalized Luminescence Counts for WT hTA1 (hTA1 [1]; M = -5) | Normalized Luminescence Counts for WT hTA1 (hTA1 [1]; M = -5.522) | Normalized Luminescence Counts for WT hTA1 (hTA1 [1]; M = -6) | Normalized Luminescence Counts for WT hTA1 (hTA1 [1]; M = -6.522) | Normalized Luminescence Counts for WT hTA1 (hTA1 [1]; M = -7) | Normalized Luminescence Counts for WT hTA1 (hTA1 [1]; M = -7.522) | Normalized Luminescence Counts for WT hTA1 (hTA1 [1]; M = -8) | Normalized Luminescence Counts for WT hTA1 (hTA1 [1]; M = -8.522) | Normalized Luminescence Counts for WT hTA1 (hTA1 [1]; M = -9) | Normalized Luminescence Counts for WT hTA1 (hTA1 [1]; M = -9.522) | Normalized Luminescence Counts for WT hTA1 (hTA1 [1]; M = -10) | Normalized Luminescence Counts for WT hTA1 (hTA1 [1]; M = -10.522) | Normalized Luminescence Counts for WT hTA1 (hTA1 [1]; M = -11) | Normalized Luminescence Counts for WT hTA1 (hTA1 [1]; M = -11.522) | Normalized Luminescence Counts for WT hTA1 (hTA1 [1]; M = -12) | Normalized Luminescence Counts for WT hTA1 (hTA1 [1]; M = -12.522) | increase of signal over DMSO-treated controls (hTA1 activation) (hTA1 [2])
Cc1cc(C(C)(C)C)c(O)c(C)c1CC1=NCCN1 [oxymetazoline] | 35.3607 and 39.1587 and 34.0837 and 3.969 and 2.152 and 2.824 | 27.6664 and 21.0198 and 25.8983 and 1.56 and 0.6511 and 0.8091 | 14.0131 and 12.0159 and 14.9299 and -0.5736 and -1.127 and -1.4822 | 3.994 and 5.664 and 5.697 and -1.838 and -1.68 and -1.798 | 1.539 and 1.637 and 2.128 and -1.4822 and -2.075 and -1.719 | -0.1968 and -0.426 and -0.09854 and -2.035 and -2.2723 and -2.391 | 0.03243 and -0.0003118 and 0.1634 and -1.166 and -0.9291 and -1.403 | -0.7206 and -0.5569 and -0.1313 and -1.364 and -1.522 and -1.956 | -0.7534 and -0.7861 and -0.0003118 and -1.403 and -1.798 and -2.035 | -0.7206 and -0.4914 and -0.5569 and -1.4822 and -1.64 and -1.838 | -1.31 and -1.0153 and -0.5242 and -2.075 and -1.4427 and -2.3118 | -0.1313 and -0.7206 and -0.7861 and -2.075 and -1.4822 and -2.43 | -0.03305 and -0.6224 and 0.03243 and -1.522 and -0.4551 and -2.114 | -0.4914 and -0.4587 and -0.5242 and -1.403 and -1.048 and -2.075 | -0.5897 and -0.6224 and -0.3932 and -2.035 and -1.4427 and -1.956 | 0.09791 and 0.06517 and -0.7861 and -1.64 and -1.127 and -0.8106 | ≥ 4 fold
O=C1Nc2cc(Cl)c(Cl)cc2N2CCNCC12 (centres unmarked) [WAY161503] | 13.2601 and 18.8261 and 16.7307 and 26.6058 and 24.591 and 22.5763 | 7.105 and 8.152 and 8.742 and 7.88 and 6.893 and 7.327 | 0.3926 and 0.6218 and 0.4581 and 2.389 and 1.639 and 1.7967 | -0.0003118 and -0.03305 and -0.426 and 0.5325 and 0.2955 and 0.6511 | -0.426 and -1.114 and -0.7861 and -0.2575 (2×) and -0.3366 | -0.8516 and -1.277 and -0.6879 and -0.3366 and -0.4946 and -1.166 | -0.09854 and -0.3605 (2×) and 0.09799 and 0.6511 and -0.3761 | -0.3605 and -0.7206 and -0.3932 and 1.165 and 1.046 and 0.6116 | -1.048 and -0.2622 and -0.8516 and -0.06003 and 0.2165 and 0.414 | -1.277 and -0.8516 and -0.7861 and 0.6116 and 0.01898 and -0.6526 | -0.7206 and -0.7534 and -0.3605 and -0.8106 and -0.1785 and -1.087 | -0.5897 and -0.09854 and -0.6224 and 0.01898 and -0.3761 and -0.7316 | 0.09791 and 0.03243 and -0.6224 and -0.2971 and 0.5325 and 0.3745 | -0.0003118 and -0.5242 and 0.06517 and -0.09953 and -0.4156 and 0.177 | -0.3277 and -0.295 and -0.8189 and 0.4535 and -0.2971 and -0.4156 | -0.3932 and -0.5897 (2×) and 0.4535 and -0.4551 and 0.09799 | ≥ 4 fold
CNC[C@H](O)c1ccc(O)c(O)c1 [epinephrine] | -0.5341 and -0.7316 and 0.493 | -0.1785 and 2.231 and -0.218 | 0.4535 and -0.139 | 0.493 and 1.046 and -0.7316 | -1.759 and -1.996 and -0.9686 | -2.549 and -2.2723 and -2.114 | -2.035 and -0.8106 and -2.154 | -1.917 and -1.68 and -2.233 | -2.391 and -2.075 and -2.628 | -2.588 and -2.667 and -2.549 | -2.865 and -2.47 and -2.391 | -2.628 and -2.193 and -2.549 | -2.3118 and -2.193 and -2.114 | -2.391 and -1.4427 and -1.956 | -2.233 and -1.4427 and -1.917 | -2.075 and -2.114 and -1.798 | ≥ 4 fold
C[C@H](N)Cn1ccc2cc(F)c(Cl)cc21 [Ro600175] | 52.641 and 46.7523 and 44.37 and 49.7206 and 44.9424 and 49.1048 | 20.1192 and 21.0025 and 20.1995 and 33.6184 and 30.3798 and 33.3903 | 10.3493 and 9.439 and 10.7776 and 14.1863 and 14.9846 and 14.3574 | 3.39 and 1.971 and 3.3096 and 6.785 and 7.013 and 6.8993 | 0.6865 and 0.9274 and 0.7668 and 2.03 and 1.973 and 1.7904 | -0.2504 and 0.2582 and -0.2236 and 0.6842 and 0.6044 and 0.3991 | 0.5258 and 0.5794 and 1.275 and 0.4333 and 0.3763 and 0.3649 | 0.4991 and -0.1166 and 0.392 and 0.03421 and 0.3649 and 0.2509 | 0.01728 and 0.7935 and -0.1969 and 0.1026 and 0.3877 and 0.2737 | 0.07081 and -0.08979 and -0.1166 and -0.1482 and -0.114 and 0.07983 | 0.1243 and -0.009489 and 0.4188 and -0.1825 and -0.0114 and -0.03421 | -0.06302 and -0.3842 and 0.1779 and -0.2053 and 0 and -0.05702 | 0.6329 and 0.3117 and 0.7132 and -0.06842 and 0.4447 and 0.2509 | 0.4188 and 0.7668 and 0.8738 and 0.4676 and 0.2509 and 0.707 | 0.5258 and 0.5526 and 1.302 and -0.114 and 0.2737 and 0.1368 | 0.2046 and 0.1779 and 0.2849 and 0.2623 and 0.4219 and 0.2395 | ≥ 4 fold
